Data: PubChem BioAssay (NCI)
“And” between values parts separate entries of the source, which are not always exact repeats. Equal entries are not always repeated.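 Exposure lasted 48 hours, with cells grown in 96-well plates and compounds tested at five concentrations. At the GI50, growth is halved. TGI is the concentration that stops growth completely.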

Tests used:
Assay in all cases: NCI tumour cell line growth inhibition, 48 h
NCI/ADR-RES ovarian = tested on: NCI/ADR-RES ovarian
HOP-62 NSCLC = tested on: HOP-62 NSCLC
ACHN renal = tested on: ACHN renal
OVCAR-8 ovarian = tested on: OVCAR-8 ovarian
HL-60(TB) leukemia = tested on: HL-60(TB) leukemia
HOP-92 NSCLC = tested on: HOP-92 NSCLC
K-562 leukemia = tested on: K-562 leukemia
HCT-15 colon = tested on: HCT-15 colon
RPMI-8226 leukemia = tested on: RPMI-8226 leukemia
HS 578T breast = tested on: HS 578T breast

| SMILES | TGI (NCI/ADR-RES ovarian) | GI50 (HOP-62 NSCLC) | TGI (HOP-62 NSCLC) | GI50 (ACHN renal) | TGI (ACHN renal) | GI50 (OVCAR-8 ovarian) | TGI (OVCAR-8 ovarian) | TGI (HL-60(TB) leukemia) | GI50 (HOP-92 NSCLC) | TGI (HOP-92 NSCLC) | TGI (K-562 leukemia) | GI50 (HCT-15 colon) | TGI (HCT-15 colon) | GI50 (RPMI-8226 leukemia) | TGI (RPMI-8226 leukemia) | GI50 (HS 578T breast) | TGI (HS 578T breast) | GI50 (NCI/ADR-RES ovarian) | GI50 (HL-60(TB) leukemia) | GI50 (K-562 leukemia) |
| --- | --- | --- | --- | --- | --- | --- | --- | --- | --- | --- | --- | --- | --- | --- | --- | --- | --- | --- | --- | --- |
| C/C(=N\NC(=S)N1CCN(c2ccccn2)CC1)c1ncccn1 | 3.95 µM and 0.403 µM | 86.5 nM | 2.09 µM and 7.05 µM | 87.1 nM | 12.1 µM | 0.0154 µM | 5.4 µM and 16.4 µM | 0.0274 µM and 0.103 µM | 208 nM | 5.91 µM and 3.08 µM | 1.35 µM and 4.46 µM | 13 nM | 5.48 µM and 16.7 µM | < 0.0205 µM | 2.94 µM and 12.1 µM | 3010 nM | 31.2 µM |  |  |  |
| CC(C)(C)c1cc(C(=O)O)c2c(c1)C(=O)OC2(c1ccccc1)c1ccccc1C(=O)O (stereo not drawn) | > 100 µM |  | > 100 µM |  | > 100 µM |  | > 100 µM | > 100 µM |  | > 100 µM | > 100 µM |  | > 100 µM | > 100 µM | > 100 µM | > 100000 nM | > 100 µM | > 100 µM |  |  |
| COc1ccc(/C=N\Nc2nc(SCC(C)C)nc(-c3ccc(OC)cc3)c2C#N)cc1 | 85.4 µM | 414 nM | 10.8 µM | 710 nM | 2.37 µM | 5.3 µM | 29.8 µM | > 100 µM | 2390 nM | 14.1 µM | > 100 µM | 11700 nM | > 100 µM | 5.48 µM | > 100 µM | 3980 nM | 30.9 µM | 10.8 µM | > 100 µM | 19.1 µM |
| N#Cc1c(NC(=O)c2ccccc2F)sc2c1CCCC2 | > 25 µM | > 25000 nM | > 25 µM | > 25000 nM | > 25 µM | > 25 µM | > 25 µM | > 25 µM | > 25000 nM | > 25 µM | > 25 µM | 21100 nM | > 25 µM | > 25 µM | > 25 µM | > 21900 nM | > 25 µM | 11.5 µM | > 25 µM | 5.07 µM |
| COc1ccc(-c2[nH]c3ccccc3c2/C=C(\C#N)S(=O)(=O)c2ccccc2)cc1 | > 25.8 µM | 958 nM | > 35.3 µM | 1910 nM | > 100 µM | 1.29 µM | > 26.6 µM | 1.5 µM | 1430 nM | > 20.6 µM | > 100 µM | 552 nM | > 48 µM | 2.14 µM | > 100 µM | 671 nM | > 46 µM | 0.427 µM | 0.287 µM | 0.535 µM |
| Nc1nc(C(=O)O)c(N=Nc2ccccc2)c(=O)[nH]1 | > 100 µM |  | > 100 µM |  | > 100 µM |  | > 100 µM | > 100 µM |  | > 100 µM | > 100 µM |  | > 100 µM |  | > 100 µM |  | > 100 µM |  |  |  |
| N#CCNC(=O)c1ccc(-c2ccnc(Nc3ccc(N4CCOCC4)cc3)n2)cc1 | > 100 µM | 1880 nM and 2120 nM | > 10 µM and 16.4 µM | 1350 nM and 531 nM | > 37.1 µM | 4.26 µM and 3.16 µM | > 73.6 µM | > 100 µM | 511 nM and 153 nM | 9.61 µM and 10.7 µM | > 100 µM | 3100 nM and 2300 nM | > 100 µM | 3.08 µM and 2.88 µM | > 31.9 µM | 506 nM and 420 nM | 4.86 µM and 12.9 µM | > 10 µM and 12.4 µM | 4.79 µM and 3.14 µM |  |
| COC1=C(OC)[C@]2(OC)c3c(O)c(OC)c4c(c3O[C@@]23O[C@@H](c2ccccc2)CC=C3C1=O)[C@@H](OC)C[C@H](c1ccccc1)O4 | 3.74 µM | 2330 nM | 5.61 µM | 605 nM | 1.81 µM | 0.451 µM | 2.62 µM | 1.4 µM | 1240 nM | 2.55 µM | 0.333 µM | 290 nM | 0.819 µM | 0.083 µM | 0.335 µM | 896 nM | 3.66 µM | 0.607 µM | 0.53 µM | 0.0676 µM |
| S=C(NCc1ccc2c(c1)OCO2)N1CCN(c2ncnc3c2oc2ccccc23)CC1 | > 100 µM | > 100000 nM | > 100 µM | > 63300 nM | > 100 µM | 5.43 µM | > 100 µM | > 95.4 µM | 14300 nM | > 100 µM | > 100 µM | > 100000 nM | > 100 µM | 6.6 µM | > 100 µM | > 100000 nM | > 100 µM | 4.69 µM | 4.87 µM | 3.6 µM |
| COc1c(CC=C(C)C)c(O)c(C(CC(C)C)c2c(O)c(CC=C(C)C)c(O)c(C(C)=O)c2O)c(O)c1C(C)=O (stereo not drawn) | 10.2 µM |  | 3.96 µM |  | 10.9 µM |  | 10.3 µM | 3.28 µM |  | 0.562 µM | 5.71 µM |  | 2.62 µM |  | 4.17 µM |  | 4.63 µM |  |  |  |
| c1ccc(CN2COc3c(ccc4c5c(ccc34)CN(Cc3ccccc3)CO5)C2)cc1 | > 100 µM |  | > 100 µM |  | > 100 µM |  | > 100 µM | > 100 µM |  | > 100 µM | > 100 µM |  | > 100 µM |  | > 100 µM |  | > 100 µM |  |  |  |
| O=C(c1ccco1)c1c(C(F)(F)F)n([O-])c2cc(F)c(F)cc2[n+]1=O | 0.179 µM | 348 nM | 0.85 µM | 122 nM | 0.256 µM | 0.412 µM | 1.33 µM | 2.74 µM | 1490 nM | 3.21 µM | 8.34 µM | < 46.4 nM | 0.149 µM |  | 0.341 µM | 655 nM | 2.63 µM | 0.0648 µM | 0.4 µM | 0.079 µM |
| N#C/C(=C\c1cc2ccc(N3CCC3)cc2oc1=O)C(=O)N(CC(=O)O)CC(=O)O | > 100 µM | > 100000 nM | > 100 µM | > 100000 nM | > 100 µM | > 100 µM | > 100 µM | > 100 µM | > 100000 nM | > 100 µM | > 100 µM | 95500 nM | > 100 µM | > 100 µM | > 100 µM | > 100000 nM | > 100 µM | > 100 µM | > 100 µM | 97.2 µM |
